Laboratory results reported in patent US20140161767A1, “FOLLICLE-STIMULATING HORMONE (FSH)/LYTIC DOMAIN FUSION CONSTRUCTS AND METHODS OF MAKING AND USING SAME” (BOARD OF SUPERVISORS OF LOUISIANA STATE UNIVERSITY AND …, priority 2012, published 2014).

Columns and labels:
Assay type in all cases: in vivo, mice
MCF-7 xenograft = test: MCF-7 breast cancer xenograft; settings: MCF-7, 2 × 3 wk, 19 d
Description: In vivo efficacy studies were conducted as monotherapy, or a combination therapy with standard of care treatments in nude mice bearing human breast cancer xenografts: MDA-MB-435S.luc (s.c.), MCF-7 (estrogen receptor alpha positive), human ovarian cancer xenografts: OVCAR-3, (s.c.), human prostate cancer xenografts: PC-3 (androgen receptor negative).
Mice were sacrificed one week after the last injection and blood collected for chemistry panel, tumor weights and body weights were recorded. Part of the tumors were fixed in PBS buffered 10% formalin for histological evaluation.

MDA-MB-435S xenograft [1] = test: MDA-MB-435S xenograft, multiple dose regimen; settings: 0.002 and 0.2 mg/kg
Description: In order to determine the minimal effective dose necessary to reduce MDA-MB-435S xenograft weights in a multiple dose regimen, Nu/Nu female mice, outbred strain, age 8 weeks (Charles River), were injected (s.c.) into the interscapular region with a MDA-MB-435S (passage #253)/Matrigel suspension (2×10^6 cells/mouse) as previously described above. […] The doses were given as a single bolus intravenous injection via lateral tail vein on days 15, 16, 17, 20, 21, 22, 23, 27, 28, 29, 30, 33, 34, 35, 36, 37, 38, 40, 41, 42 after tumor cell inoculation. Saline injections served as control groups.
Each treatment group consisted of 16 mice. During the entire study tumor volumes were recorded twice weekly. Final necropsy was conducted on day 45 after tumor cell injection. […] due to occlusion of the tail vein in most mice. At study endpoint body weight, tumor weights were determined and fixed in phosphate buffered 10% formalin.

MDA-MB-435S xenograft [2] = test: MDA-MB-435S xenograft, kinetics of tumor destruction after a single injection; settings: single i.v. injection, 0.2 and 2 mg/kg
Description: In brief, Nu/Nu female mice, outbred strain, age 5 weeks (Charles River), were injected (s.c.) into the interscapular region with a MDA-MB-435S (passage #249)/Matrigel suspension (2.4×10^6 cells/mouse) as described in Example 10. […] The doses were given as a single bolus intravenous injection via lateral tail vein.
Mice were sacrificed 1, 2 and 16 hours after treatment with Phor 18-LHRH (338613) or saline. At study endpoint body weight, tumor weights were determined and tumors were fixed in phosphate buffered 10% formalin.

KFAKFAKKFAKFAKKFAKQHWSYGLRPG [Phor18-LHRH]
Median Tumor Weight vs Saline P < 0.05 (dose, growth delay) (MCF-7 xenograft): 0.02 mg/kg growth | Tumor response (MDA-MB-435S xenograft [1]): tumor regression | Histological examination of tumors (MDA-MB-435S xenograft [1]; H&E): eradication of tumor cells | Time after injection to destruction of tumors (MDA-MB-435S xenograft [2]): 1 h
